According to ChEMBL document CHEMBL1132876, “Examination of N-hydroxylation as a prerequisite mechanism of nitric oxide synthase inactivation” (Bioorg Med Chem Lett, 2000):

Experiments:
[1] = target: T1, Nitric oxide synthase, inducible (Mus musculus, UniProt P29477); test: The compound was tested for competitive antagonist of Nitric oxide synthase; assay type: functional
T1 sequence (P29477 whole entry): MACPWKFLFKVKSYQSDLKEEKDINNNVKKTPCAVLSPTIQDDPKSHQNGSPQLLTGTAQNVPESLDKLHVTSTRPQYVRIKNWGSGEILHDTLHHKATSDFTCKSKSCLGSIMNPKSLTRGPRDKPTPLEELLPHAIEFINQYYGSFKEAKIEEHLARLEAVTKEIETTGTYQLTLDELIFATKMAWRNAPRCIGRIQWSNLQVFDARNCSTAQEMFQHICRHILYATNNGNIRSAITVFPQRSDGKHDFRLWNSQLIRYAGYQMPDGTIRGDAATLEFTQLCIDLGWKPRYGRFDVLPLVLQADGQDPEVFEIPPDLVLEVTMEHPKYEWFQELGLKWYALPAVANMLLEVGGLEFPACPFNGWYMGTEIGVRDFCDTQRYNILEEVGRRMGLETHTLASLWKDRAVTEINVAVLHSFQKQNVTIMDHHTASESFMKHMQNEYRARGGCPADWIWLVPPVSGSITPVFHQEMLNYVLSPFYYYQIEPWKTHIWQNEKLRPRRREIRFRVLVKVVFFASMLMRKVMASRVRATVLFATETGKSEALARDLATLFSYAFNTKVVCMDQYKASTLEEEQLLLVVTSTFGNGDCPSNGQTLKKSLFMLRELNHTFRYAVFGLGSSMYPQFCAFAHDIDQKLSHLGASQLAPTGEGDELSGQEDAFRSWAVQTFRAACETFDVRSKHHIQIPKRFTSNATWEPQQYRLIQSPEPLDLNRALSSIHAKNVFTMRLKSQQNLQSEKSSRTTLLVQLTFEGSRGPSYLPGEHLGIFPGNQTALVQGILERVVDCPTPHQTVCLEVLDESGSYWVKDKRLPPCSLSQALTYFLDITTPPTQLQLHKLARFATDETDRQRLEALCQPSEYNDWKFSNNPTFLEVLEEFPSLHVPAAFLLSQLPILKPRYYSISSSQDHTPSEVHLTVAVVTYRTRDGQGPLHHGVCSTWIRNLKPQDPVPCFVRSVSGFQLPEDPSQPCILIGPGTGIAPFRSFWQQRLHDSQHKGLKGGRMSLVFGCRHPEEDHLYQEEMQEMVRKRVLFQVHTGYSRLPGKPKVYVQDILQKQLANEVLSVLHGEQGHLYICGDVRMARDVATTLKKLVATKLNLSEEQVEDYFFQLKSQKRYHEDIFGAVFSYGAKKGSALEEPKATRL

[2] = target: T2, Nitric oxide synthase, inducible (Mus musculus) (UniProt P29477)
T2 sequence (whole entry): T1 sequence (P29477 whole entry)
Description: Pseudo-first order inactivation rate constant against nitric oxide synthase was determined

[3] = target: T1, Nitric oxide synthase, inducible; test: Compound was tested for competitive antagonist of Nitric oxide synthase; assay type: functional

Row | SMILES | Ki [1] [µM] | kinact [2] [min⁻¹] | Ki [3] [nM]
1 | CC(=NO)NCCC[C@H](N)C(=O)O | 37.7 |  | 
2 | CC(=NO)NCCCC[C@H](N)C(=O)O | 41.1 |  | 
3 | CC(=N)NCCCC[C@H](N)C(=O)O [L-NIL] | 2.16 | 0.35 | 
4 | CC(=N)NCCC[C@H](N)C(=O)O [L-NIO] |  | 0.16 | 1420
